Test results: patent US6399618B1, “Compositions and methods for modulating sexual activity” (priority 1997, dated 2002)
Structures can show the parent of a compound that is named as a salt. Marks after values point to notes of the source that are not given here.

Assays:
male rats [1] = experiment: Rat procopulatory actions (copulatory behavior with receptive female); type: in vivo, Long-Evans rats
Protocol: Male Long-Evans rats (300-600 g; n=15 per group) were injected with saline or XVIb (1.5-30.5 mg/kg; ip) 5 minutes prior to being paired with a female rat sexually receptive by administration of estradiol benzoate (25 μg; 48 hours prior to testing) and progesterone (1 mg/kg; 4 hours prior to testing). Mount latency, intromission latency, ejaculation latency, mounts, intromissions, ejaculations and post ejaculatory interval were recorded over a 30 minutes observation period.
In Table 3, the effect of compound XVIb on copulatory behavior in male rats is shown. Data are expressed as mean (sem for 15 test animals). Latency is the time in seconds to appearance of that behavior. Ejaculations are the number of such events during 30 minutes of observation. Intromissions are the number of such events before ejaculation. Post ejaculatory interval is the time in seconds from ejaculation on intromission to the first mount of the next copulatory sequence. P values derived from two-tailed t-test for significance between mean values (α<0.05).

male rats [2] = experiment: Rat sexual behavior, proerectile actions (injected); type: in vivo, SD rats; conditions: for Erections/60 minutes / Latency to the first erection: mean±sem; for Erections/60 minutes / Latency to the first erection / Responders: n=10
Protocol: Male SD rats (350-450 g; n=10 per group) were injected with increasing doses of XVIb (4.0-64.0 mg/kg), XVIa (1.0, 4.0 or 16 mg/kg) or saline and observed 5 minutes later, in groups of 5, for the number of erections and the time to the first erection, over a 60 minutes observation period.
In Table 2, the effects of XVIb, XVIa and saline on erection in male rats is indicated. Data is expressed as the mean±sem for 10 test animals. Data marked with an asterisk “*” indicate significant difference from saline (α<0.05) as determined by ANOVA with Tukey test for multiple comparisons.

male rats [3] = experiment: Rat behavior, blood chemistry and body temperature; type: in vivo, SD rats
Protocol: Male SD rats (350-450 g; n=15 per group) were injected with a single dose of XVIb (16 mg/kg, ip) and saline and observed 5 minutes later, in pairs, for erections, ejaculation, movement and grooming over a 60 minute observation period. Rectal temperature was recorded before drug administration and 1 hour after drug administration. At the end of experiments rats were decapitated and trunk blood was collected for RIA analysis of serum cortisol and prolactin levels.

male rats [4] = experiment: Rat sexual behavior, proerectile actions after oral administration; type: in vivo, SD rats
Protocol: Male SD rats (250-300 g) were administered increasing doses of XVIb (30-100 mg/kg in distilled water, per os) or distilled water only via a feeding tube, and observed 5 minutes later for the number of erections (as characterized by penile grooming) over a 60 minute observation period. Six rats at a time, housed singly, were observed by two observers. Treatments were administered in a standard randomized and double blinded manner.

male rats [5] = experiment: Antagonism of XVIb-induced erections by comparative compounds in rats; type: in vivo, SD rats; conditions: XVIb 16 mg/kg ip; n=6
Protocol: Male SD rats (300-500 g; n=6 per group) were injected with (±)-Pindolol, scopolamine, haloperidol, or ketanserin, 30 minutes prior to injection of a single dose of XVIb (16 mg/kg, ip) or saline.

male primates = experiment: Sexual behavior in male primates, paired observation study (penile response grades); type: in vivo, macaca fascilaris; conditions: 1.0 mg/kg ip; N=3; observed 1 hour
Protocol: Monkeys used for testing were separated from the cluster of cages and treated and observed in pairs in the middle of the housing environment.
N=3 for all drug-treated animals, while N=18 for saline-treated animals. […] Data are expressed as the number of test animals having a particular grade of penile response. Penile responses were scored every 10 sec for 1 hour according to the following scale:
Grade 0=glans are hidden from the view
Grade 1=glans are clearly visible
Grade 2=penis is extended
Grade 4=erection with masturbation
Grade 5=erection with masturbation and ejaculation

[6] = 15 mg/kg ip, n=15, 30 minutes observation
[7] = 16 mg/kg ip, RIA of trunk blood at end of experiment

Compound: CN1CCN(C(=O)Cc2ccc3ccccc3c2)CC1 [Compound XVIb, 1-Methyl-4(2-naphthaleneacetyl)piperazine monohydrochloride]
- number of intromissions (in words) (male rats [1]; 7.5 mg/kg and 30.5 mg/kg only, data is not shown): reducing the number of intromissions
- Post ejaculatory interval (male rats [1]; 15 mg/kg ip, n=15): 426.6 ± 28.5 s
- Ejaculation latency (male rats [1]; [6]): 330.9 ± 31.5 s
- Intromission latency (male rats [1]; [6]): 405.1 ± 88.0 s
- Mount latency (male rats [1]; [6]): 204.5 ± 31.9 s
- Intromissions (male rats [1]; 15 mg/kg ip, n=15, before ejaculation): 6.9 ± 0.7
- ejaculations (male rats [1]; 15 mg/kg ip, n=15, during 30 minutes of observation): 4.7 ± 0.2
- Post ejaculatory interval (in words) (male rats [1]; any of doses tested (1.5-30.5 mg/kg ip)): not affected
- copulatory behaviors (in words) (male rats [1]; doses above and below 15 mg/kg): without significant effects
- Erections/60 minutes (male rats [2]; 4.0 mg/kg): 2.1 ± 0.4
- Latency to the first erection (male rats [2]; 4.0 mg/kg): 2390 ± 238 s
- Responders (male rats [2]; 4.0 mg/kg): 100%
- Erections/60 minutes (male rats [2]; 8.0 mg/kg): 5.1 ± 0.6* #
- Latency to the first erection (male rats [2]; 8.0 mg/kg): 1299 ± 214 s
- Responders (male rats [2]; 8.0 mg/kg): 100%
- Erections/60 minutes (male rats [2]; 16.0 mg/kg): 7.7 ± 0.4* #
- Latency to the first erection (male rats [2]; 16.0 mg/kg): 654 ± 108* sec
- Responders (male rats [2]; 16.0 mg/kg): 100%
- Erections/60 minutes (male rats [2]; 32.0 mg/kg): 2.5 ± 0.2
- Latency to the first erection (male rats [2]; 32.0 mg/kg): 1046 ± 64* sec
- Responders (male rats [2]; 32.0 mg/kg): 100%
- Erections/60 minutes (male rats [2]; 64.0 mg/kg): 2.7 ± 0.5
- Latency to the first erection (male rats [2]; 64.0 mg/kg): 3319 ± 170* sec
- Responders (male rats [2]; 64.0 mg/kg): 100%
- effect on penile erections (in words) (male rats [2]; 60 minutes observation): produced erections in rats in a bell shaped dose-response fashion
- dose at which the maximal effect on erections was observed (male rats [2]; doses 4.0-64.0 mg/kg): 16 mg/kg
- dose with minimal time to the first erection (male rats [2]; doses 4.0-64.0 mg/kg): 16 mg/kg
- Serum cortisol (male rats [3]; [7]): not significantly altered
- Serum prolactin (male rats [3]; [7]): not significantly altered
- Rearing (male rats [3]; 16 mg/kg ip, n=15): 77±5.9 rears/60 minutes
- erections (male rats [3]; 16 mg/kg ip, n=15): 5.6±0.7 erections/60 minutes
- locomotion (male rats [3]; 16 mg/kg ip, n=15): 20.7±3.3 moves
- non-penile grooming (male rats [3]; 16 mg/kg ip, n=15): 22±4.8 grooms/60 minutes
- penile grooming (male rats [3]; 16 mg/kg ip, n=15): 12.1±3.3 grooms/60 minutes
- ejaculations (male rats [3]; 16 mg/kg ip, n=15, 60 minute observation): 1.8±0.1 ejaculations
- Rectal temperature (male rats [3]; 16 mg/kg, before and 1 hour after drug administration): not significantly altered
- Responders (male rats [4]; 30 mg/kg p.o.): 100%
- maximum number of erections/rat (male rats [4]; 30 mg/kg p.o.): 3 h⁻¹
- Responders (male rats [4]; 100 mg/kg p.o.): 100%
- maximum number of erections/rat (male rats [4]; 100 mg/kg p.o.): 5 h⁻¹
- erections with XVIb without antagonist (pindolol comparison) (male rats [5]): 7.8±1.4 erections/60 minutes
- erections with XVIb without antagonist (scopolamine comparison) (male rats [5]): 1.7 erections/60 minutes
- number of test animals having Grade 0 penile response (glans are hidden from the view) (male primates): 1
- number of test animals having Grade 1 penile response (glans are clearly visible) (male primates): 2
- number of test animals having Grade 2 penile response (penis is extended) (male primates): 2
- number of test animals having Grade 3 penile response (full erection) (male primates): 2
- number of test animals having Grade 4 penile response (erection with masturbation) (male primates): 1
- number of test animals having Grade 5 penile response (erection with masturbation and ejaculation) (male primates): 0
